According to patent US20030013660A1, “Dioxolane analogs for improved inter-cellular delivery” (Shire BioChem Inc., priority 2000, published 2003):
“And” between values parts separate entries of the source, which are not always exact repeats. Equal values may be shown once.

Tests used:
H-460 [1] = test: 3H-TdR (3H-thymidine) incorporation assay at 72 hr; format: cell-based, Human
SF-268 [2] = test: MTT assay at 72 hr (24 hr drug exposure, wash, 48 hr); format: cell-based
Experimental: (§1) Exposition of 24hr to drug, washed, and incubated for another 48hr (total of 72hr assay)

CEM cells = test: CellTiter 96 cell proliferation assay (chemosensitivity), 48 h; format: cell-based
Experimental: The chemosensitivity of suspension cells lines (e.g., CEM or CEM-derivatives) is assessed using the CellTiter 96 ? proliferation assay. […] Adherent cell lines (e.g., DU145 or DU145^R) are seeded (^˜10^5 cells) in triplicate dishes, 24 h before drug exposure. Growth inhibition is determined by trypsinization and counting cells electronically.

SF-268 [3] = test: 3H-TdR (3H-thymidine) incorporation assay at 72 hr; format: cell-based, Human
CEM/dCK- [4] = test: 3H-TdR incorporation at 72 hr (24 hr drug exposure, wash, 48 hr); format: cell-based; conditions: Homo sapiens, CCRF-CEM, read-out: IC50 in μM (3H-TdR incorporation at 72 hr) CEM/dCK- 24 h, CCRF-CEM deoxycytidine kinase-deficient; 24 h drug exposure, 72 hr assay
Experimental: (§2) Exposition of 24 hr to drug, wash, incubated for another 48 hr (total of 72 hr assay)
(§3) (3H-Thymidine Incorporation Assay)

H-460 [5] = test: as above; format: cell-based, Human; conditions: Homo sapiens, NCI-H460, read-out: IC50 in μM (3H-TdR incorporation at 72 hr) H-460 24 h, H-460 Human Lung Carcinoma, 72 hr assay
Experimental: as §2, §3

SF-268 [6] = test: as above; format: cell-based, Human; conditions: Homo sapiens, SF-268, read-out: IC50 in μM (3H-TdR incorporation at 72 hr) SF-268 24 h, SF-268 Human Central Nervous System Tumor; 24 h drug exposure, 72 hr assay
Experimental: as §2, §3

MCF-7 [7] = test: as above; format: cell-based, Human; conditions: Homo sapiens, MCF7, read-out: IC50 in μM (3H-TdR incorporation at 72 hr) MCF-7 24 h, MCF-7 Human Breast Carcinoma, 72 hr assay
Experimental: as §2, §3

H-460 [8] = test: MTT assay at 72 hr (24 hr drug exposure, wash, 48 hr); format: cell-based
Experimental: as §1

MCF-7 [9] = test: as above; format: cell-based; conditions: Homo sapiens
Experimental: as §1

CCRF-CEM [10] = test: MTT or WST-1 assay at 72 hr (24 hr drug exposure, wash, 48 hr); format: cell-based
Experimental: as §1

CEM/dCK- [11] = test: as above; format: cell-based; conditions: for Resistance Factor*: single experiment
Experimental: as §1

CEM/dCK- [12] = test: 3H-TdR (3H-thymidine) incorporation assay at 72 hr; format: cell-based
Experimental: (§4) Table of IC50 Values (μM) for Controls
as §2, §3

MCF-7 [13] = test: 3H-TdR (3H-thymidine) incorporation assay at 72 hr; format: cell-based, Human
CCRF-CEM [14] = test: 3H-TdR (3H-thymidine) incorporation assay at 72 hr; format: cell-based
Experimental: as §4, §2, §3

[15] = Homo sapiens, NCI-H460, 24 h, read-out: IC50 H-460 24 h, Average, Average ± spread of the repeat determinations, 24 h exposure
[16] = read-out: IC50 H-460 24 h, 24 h drug exposure, wash, another 48 hr, 3H-TdR incorporation at 72 hr
[17] = Homo sapiens, SF-268, read-out: IC50 SF-268 24 h, Average, MTT at 72 hr, Average of the experiments
[18] = Homo sapiens, SF-268, 24 h, read-out: IC50 SF-268 24 h, Average, Average ± spread of the repeat determinations, 24 h exposure
[19] = Homo sapiens, NCI-H460, read-out: IC50 H-460 24 h, MTT at 72 hr, 24 h exposure, single experiment
[20] = Homo sapiens, SF-268, read-out: IC50 SF-268 24 h, MTT at 72 hr, 24 h exposure, single experiment
[21] = MCF7, read-out: IC50 MCF-7 24 h, MTT at 72 hr, 24 h exposure, single experiment
[22] = Homo sapiens, CCRF-CEM, read-out: IC50 CCRF-CEM 24 h, MMT or WST-1 at 72 hr, 24 h exposure, single experiment
[23] = read-out: IC50 CEM/dCK- 24 h, MMT or WST-1 at 72 hr, 24 h exposure, single experiment
[24] = Homo sapiens, CCRF-CEM, read-out: IC50 CEM/dCK- 24 h, 24 h drug exposure, wash, another 48 hr, deoxycytidine kinase-deficient CCRF-CEM
[25] = read-out: IC50 SF-268 24 h, 24 h drug exposure, wash, another 48 hr, 3H-TdR incorporation at 72 hr

| Compound | IC50 (H-460 [1]; [15]) | IC50 (H-460 [1]; [16]) | IC50 (SF-268 [2]; [17]) | IC50 (SF-268 [3]; [18]) | IC50 (CEM/dCK- [4]) | IC50 (H-460 [5]) | IC50 (SF-268 [6]) | IC50 (MCF-7 [7]) | IC50 (H-460 [8]; [19]) | IC50 (SF-268 [2]; [20]) | IC50 (MCF-7 [9]; [21]) | IC50 (CCRF-CEM [10]; [22]) | Resistance Factor* (CEM/dCK- [11]; CEM/dCK- versus CCRF-CEM) | IC50 (CEM/dCK- [11]; [23]) | IC50 (CEM/dCK- [12]; [24]) | IC50 (SF-268 [3]; [25]) | other results |
| --- | --- | --- | --- | --- | --- | --- | --- | --- | --- | --- | --- | --- | --- | --- | --- | --- | --- |
| Nc1ccn([C@@H]2O[C@H](CO)[C@@H](O)[C@@H]2O)c(=O)n1 [Cytarabine, cytarabine, reference compound] | 52 nM | 13 nM and 99 nM | 25000 ± 23000 nM | 940 nM |  |  |  |  |  |  |  |  |  |  |  |  | EC50 (CEM cells; Homo sapiens, CCRF-CEM, 48 h, read-out: EC50 (50% of the dose response curve)): 10 nM; effect of the es transport inhibitor NBMPR on resistance of CEM cells (CEM cells; presence of NBMPR): increased resistance; IC50 (SF-268 [3]; read-out: IC50 SF-268 24 h, 24 h drug exposure, wash, another 48 hr, 3H-TdR incorporation at 72 hr, listed as Cytosine Arabinoside): 300 nM |
| CCCCCCCC/C=C/CCCCCCCC(=O)Nc1ccn([C@@H]2CO[C@H](CO)O2)c(=O)n1 (stereo in doubt) [Compound 216, Octadec-9-enoic acid [1-(2-hydroxymethyl-[1,3]dioxolan-4-yl)-2-oxo-1,2-dihydro-pyrimidin-4-yl]-amide] |  |  |  |  | 14 µM | 0.00088 µM | 0.018 µM | ≤ 0.0001 µM | 64 nM | 400 nM | 9.4 nM | 340 nM | 91 | 31000 nM |  |  |  |
| CC(C)CCCCC(=O)Nc1ccn([C@@H]2CO[C@H](CO)O2)c(=O)n1 [Compound 277, 6-METHYL-HEPTANOIC ACID [1-(2-HYDROXYMETHYL- [1,3]DIOXOLAN-4-YL)-2- OXO-1,2-DIHYDRO- PYRIMIDIN-4-YL]-AMIDE] |  | 290 nM |  |  |  |  |  |  | 2000 nM | 7300 nM | 320 nM | 480 nM | >208 | > 100000 nM | > 100000 nM | 190 nM | IC50 (H-460 [1]; Homo sapiens, NCI-H460, read-out: IC50 H-460 24 h, 24 h drug exposure, wash, another 48 hr, 3H-TdR incorporation at 72 hr): 200 nM; IC50 (MCF-7 [13]; Homo sapiens, MCF7, read-out: IC50 MCF-7 24 h, 24 h drug exposure, wash, another 48 hr, 3H-TdR incorporation at 72 hr): 13 nM; IC50 (MCF-7 [13]; read-out: IC50 MCF-7 24 h, 24 h drug exposure, wash, another 48 hr, 3H-TdR incorporation at 72 hr): 16 nM; IC50 (SF-268 [3]; Homo sapiens, SF-268, read-out: IC50 SF-268 24 h, 24 h drug exposure, wash, another 48 hr, 3H-TdR incorporation at 72 hr): 210 nM |
| CCCCC/C=C\C/C=C\CCCCCCCC(=O)Nc1ccn([C@@H]2CO[C@H](CO)O2)c(=O)n1 [Compound 217, OCTADECA-9,12-DIENOIC ACID [1-(2- HYDROXYMETHYL- [1,3]DIOXOLAN-4-YL)-2- OXO-1,2-DIHYDRO- PYRIMIDIN-4-YL]-AMIDE] |  |  |  |  | 1.2 µM | ≤ 0.0001 µM | 0.00013 µM | ≤ 0.0001 µM | 11 nM | 120 nM | 3.9 nM | 360 nM | 75 | 27000 nM |  |  |  |
| Nc1ccn([C@@H]2CO[C@H](CO)O2)c(=O)n1 [BCH-4556] | 120 nM |  | 29000 ± 23000 nM | 440 nM |  |  |  |  |  |  |  |  |  |  | > 100000 nM | 330 nM and 660 nM | IC50 (CCRF-CEM [14]; Homo sapiens, CCRF-CEM, 24 h, read-out: IC50 CCRF-CEM 24 h, Average, Average ± spread of the repeat determinations, 24 h exposure): 78 nM; IC50 (CCRF-CEM [14]; read-out: IC50 CCRF-CEM 24 h, 24 h drug exposure, wash, another 48 hr, 3H-TdR incorporation at 72 hr): 100 nM; IC50 (CEM/dCK- [12]; 24 h, read-out: IC50 CEM/dCK- 24 h, Average, Average ± spread of the repeat determinations, 24 h exposure): > 100000 nM; Factor* (Resistance Factor), Average (CEM/dCK- [12]; Average ± spread of the ratios dCK- on wild-type CCRF-CEM): 1792 ± 1584; IC50 (CEM/dCK- [12]; read-out: IC50 CEM/dCK- 24 h, 24 h drug exposure, wash, another 48 hr, deoxycytidine kinase-deficient CCRF-CEM): 56000 nM; IC50 (H-460 [1]; Homo sapiens, NCI-H460, read-out: IC50 H-460 (72 h), 72 h exposure, 3H-TdR incorporation at 72 hr): 40 nM; IC50 (MCF-7 [13]; Homo sapiens, MCF7, 24 h, read-out: IC50 MCF-7 24 h, Average, Average ± spread of the repeat determinations, 24 h exposure): 180 nM; IC50 (MCF-7 [13]; Homo sapiens, MCF7, read-out: IC50 MCF-7 (72 h), 72 h exposure, 3H-TdR incorporation at 72 hr): 66 nM; IC50 (H-460 [8]; Homo sapiens, NCI-H460, read-out: IC50 H-460 24 h, Average, MTT at 72 hr, Average of the experiments): 1600 ± 1600 nM; IC50 (H-460 [8]; read-out: IC50 H-460 24 h, MTT at 72 hr, 24 h exposure, single experiment): 780 nM; IC50 (SF-268 [2]; read-out: IC50 SF-268 24 h, MTT at 72 hr, 24 h exposure, single experiment): 16000 nM; IC50 (MCF-7 [9]; MCF7, read-out: IC50 MCF-7 24 h, Average, MTT at 72 hr, Average of the experiments): 2000 ± 2400 nM; IC50 (CCRF-CEM [10]; Homo sapiens, CCRF-CEM, read-out: IC50 CCRF-CEM 24 h, Average, MMT or WST-1 at 72 hr, Average of the experiments): 380 ± 280 nM; IC50 (CCRF-CEM [10]; read-out: IC50 CCRF-CEM 24 h, MMT or WST-1 at 72 hr, 24 h exposure, single experiment): 210 nM and 140 nM; Resistance Factor*, Average (CEM/dCK- [11]; CEM/dCK- versus CCRF-CEM, Average of the experiments): 349 ± 283; IC50 (CEM/dCK- [11]; read-out: IC50 CEM/dCK- 24 h, Average, MMT or WST-1 at 72 hr, Average of the experiments): > 100000 nM; IC50 (SF-268 [3]; Homo sapiens, SF-268, read-out: IC50 SF-268 (72 h), 72 h exposure, 3H-TdR incorporation at 72 hr): 96 nM |
